The source of these data is patent US10364227B2, “Therapeutic compounds” (ARIZONA BOARD OF REGENTS ON BEHALF OF ARIZONA STATE …, priority 2015, dated 2019).

Bounds are passed on as bounds.

The first data set in a line: Bioavailability in a mouse model (blood level after oral gavage). The format is in vivo. As to conditions: whole blood, 100 mg/kg oral gavage in olive oil, blood sample 6 h after gavage, quantified by HPLC. On the procedure: Bioavailability is an important characteristic of many therapeutic agents. Accordingly, certain compounds disclosed herein were tested for bioavailability in a mouse model.
The test compound was prepared on the day of dose administration by dissolving the appropriate amount of test article in olive oil to reach the proper concentrations.
The dose of 100 mg/kg body weight (total volume of administration was <120 μL) was used for testing. For example, a mouse whose body weight is 20 g would need 2 mg of test article in oral gavage. Mice were food deprived overnight. On the experimental day, mice were weighed to obtain dosage information before oral gavage was performed. Blood and brain samples were collected at the desired post-dose time points after oral gavage. Brain samples were perfused to exclude blood as a factor in the analysis of bioavailability.
`CCCCCCCCCCCCCCCCc1nc(N2CCC2)nc(OC2CCC2)c1O` [Compound 12, 2-(Azetidin-1-yl)-4-cyclobutanoxy-6-hexadecylpyrimidin-5-ol] gave a concentration at 6 h of around 4 µM.

Test in a further data set: not given
Details: not given
As a reminder, the melting point is the temperature of the solid-liquid transition. On to `[2H]C(CCCCCCCCCCCCCCC)c1nc(N(C([2H])([2H])[2H])C([2H])([2H])[2H])nc(OC([2H])([2H])[2H])c1O` (stereo not drawn) [Compound 2, 2-(N,N-dimethylamino-d6)-4-(1-hexadecyl-d1)-6-(methoxy-d3)-pyrimidin-5-ol], for which the melting point was 75 to 76 °C.
The same measure, in the same setting: to `CCCCCCCCCCCCCCCCc1nc(N2CCC2)nc(OC)c1O` [Compound 8, 2-(Azetidin-1-yl)-4-methoxy-6-hexadecylpyrimidin-5-ol] belongs 59 to 60 °C.
Consider `CCCCCCCCCCCCCCCCc1nc(N2CCC2)nc(OCC)c1O` [Compound 9, 2-(Azetidin-1-yl)-4-ethoxy-6-hexadecylpyrimidin-5-ol], for which the melting point fell in the range of 79 to 80 °C.
On the same count and under the same terms, the same measure for `CCCCCCCCCCCCCCCOc1nc(N2CCC2)nc(C)c1O` [Compound 11, 2-(Azetidin-1-yl)-4-methyl-6-(pentadecyloxy)pyrimidin-5-ol]: 83 to 85 °C.
In turn, `[2H]C([2H])([2H])N(c1nc(CCCCCCCCCCCCCCCC)c(O)c(OC2CCC2)n1)C([2H])([2H])[2H]` [Compound 13, 4-Cyclobutoxy-2-(N,N-dimethylamino)-6-hexadecylpyrimidin-5-ol-d6] showed a melting point of 72 to 73 °C.
In turn, `CCCCCCCCCCCCCCCCc1nc(N2CCCC2)nc(OC2CCC2)c1O` [Compound 14, 4-Cyclobutoxy-2-(pyrrolidin-1-yl)-6-hexadecylpyrimidin-5-ol] came in with a melting point of 74 to 76 °C.
Still for that read-out and setting: the same measure for `CCCCCCCCCCCCCCCCc1nc(N2CCCCC2)nc(OC2CCC2)c1O` [Compound 15, 4-Cyclobutoxy-2-(piperidin-1-yl)-6-hexadecylpyrimidin-5-ol]: 78 to 79 °C.

Test in the next data set: not given
As to conditions: calculated value, James et al. (2005) J Biol. Chem. 280, 21295; cited from earlier work.
Turning to `COC1=C(OC)C(=O)C(C/C=C(\C)CC/C=C(\C)CC/C=C(\C)CC/C=C(\C)CC/C=C(\C)CC/C=C(\C)CC/C=C(\C)CC/C=C(\C)CC/C=C(\C)CCC=C(C)C)=C(C)C1=O` [coenzyme Q10], the “calculated octanol-water partition coefficient” value is recorded as > 10^20.
